Experiments:
[1] = molecular target: T1, TRPV4 channel receptors (Bos taurus, UniProt A0A8F4X677); experiment: Ca2+ influx, Fura-2 fluorescence on FlexStation in bovine articular chondrocytes; type: cell-based; settings: Fura-2, FlexStation
T1 construct: obtained using this method in bovine articular chondrocytes; endogenous in cells; host or cells: bovine articular chondrocytes
Description: Ca^2+ influx mediated through TRPV4 channel receptors can be measured using articular chondrocytes from such species as, but not limited to, human, rat, canine, rabbit, monkey, and bovine, using standard techniques in the art such as, but not limited to, Fura-2 (Invitrogen/Molecular Probes, Eugene, Oreg.) fluorescence using a FlexStation (manufactured by Molecular Devices, Sunnyvale, Calif.). Table 1 lists biological data for several representative compounds obtained using this method in bovine articular chondrocytes.
(§1) All exemplary compounds of the present invention were assessed using at least one of the biological assays presented above. Compounds presented in the Examples had EC50 values of about 0.01 μM to about 30 μM as measured by Flex Station using bovine articular chondrocytes and pEC50 values between about 4.5 to about 7.0 as measured by FLIPR assay using TRPV4 expressing HEK cells.

[2] = molecular target: T2, TRPV4 channel receptor (Homo sapiens, UniProt Q9HBA0); experiment: FLIPR assay using TRPV4 expressing HEK cells; type: cell-based; settings: FLIPR method; pEC50 = −log10(EC50 μM)
T2 construct: expressed in transfected cells; host or cells: HEK cells
Description: Other techniques used to measure TRPV4 channel receptor activation in chondrocytes include, but are not limited to: FLIPR assay, measuring a compound's capability to reduce the amount of ADAMTSs produced and/or released in response to a catabolic stimulus by a cell comprising a TRPV4 channel receptor; measuring a compound's capability to reduce the amount of MMPs produced and/or released in response to a catabolic stimulus by a cell comprising a TRPV4 channel receptor; measuring a compound's capability to effect the amount of nitric oxide (NO) produced in response to a catabolic stimulus by a cell comprising a TRPV4 channel receptor; and measuring a compound's capability to attenuate the inhibition of matrix synthesis in response to a catabolic stimulus by a cell comprising a TRPV4 channel receptor.
as §1

T1 sequence (A0A8F4X677 1-871): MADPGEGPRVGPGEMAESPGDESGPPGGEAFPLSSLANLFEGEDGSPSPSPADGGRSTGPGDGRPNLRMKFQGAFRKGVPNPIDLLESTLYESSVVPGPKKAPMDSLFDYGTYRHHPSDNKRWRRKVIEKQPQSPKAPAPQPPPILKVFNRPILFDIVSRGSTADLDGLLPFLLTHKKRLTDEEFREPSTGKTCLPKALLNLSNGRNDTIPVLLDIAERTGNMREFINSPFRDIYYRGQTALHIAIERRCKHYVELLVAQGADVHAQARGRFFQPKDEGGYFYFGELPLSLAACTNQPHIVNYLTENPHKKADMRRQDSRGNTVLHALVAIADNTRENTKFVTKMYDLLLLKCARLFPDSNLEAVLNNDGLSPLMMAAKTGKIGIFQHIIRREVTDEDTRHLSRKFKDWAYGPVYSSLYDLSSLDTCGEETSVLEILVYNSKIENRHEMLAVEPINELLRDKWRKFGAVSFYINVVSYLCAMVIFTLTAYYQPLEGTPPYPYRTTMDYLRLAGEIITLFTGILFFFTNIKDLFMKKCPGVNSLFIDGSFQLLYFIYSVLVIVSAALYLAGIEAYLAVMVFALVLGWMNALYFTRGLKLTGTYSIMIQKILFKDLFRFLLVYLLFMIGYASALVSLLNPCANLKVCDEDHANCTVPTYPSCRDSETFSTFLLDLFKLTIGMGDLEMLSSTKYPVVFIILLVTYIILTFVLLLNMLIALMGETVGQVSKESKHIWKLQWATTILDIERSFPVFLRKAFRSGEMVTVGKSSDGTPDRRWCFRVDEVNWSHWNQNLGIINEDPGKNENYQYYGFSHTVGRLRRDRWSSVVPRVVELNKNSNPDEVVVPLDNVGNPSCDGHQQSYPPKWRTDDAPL
T2 sequence (Q9HBA0 whole entry): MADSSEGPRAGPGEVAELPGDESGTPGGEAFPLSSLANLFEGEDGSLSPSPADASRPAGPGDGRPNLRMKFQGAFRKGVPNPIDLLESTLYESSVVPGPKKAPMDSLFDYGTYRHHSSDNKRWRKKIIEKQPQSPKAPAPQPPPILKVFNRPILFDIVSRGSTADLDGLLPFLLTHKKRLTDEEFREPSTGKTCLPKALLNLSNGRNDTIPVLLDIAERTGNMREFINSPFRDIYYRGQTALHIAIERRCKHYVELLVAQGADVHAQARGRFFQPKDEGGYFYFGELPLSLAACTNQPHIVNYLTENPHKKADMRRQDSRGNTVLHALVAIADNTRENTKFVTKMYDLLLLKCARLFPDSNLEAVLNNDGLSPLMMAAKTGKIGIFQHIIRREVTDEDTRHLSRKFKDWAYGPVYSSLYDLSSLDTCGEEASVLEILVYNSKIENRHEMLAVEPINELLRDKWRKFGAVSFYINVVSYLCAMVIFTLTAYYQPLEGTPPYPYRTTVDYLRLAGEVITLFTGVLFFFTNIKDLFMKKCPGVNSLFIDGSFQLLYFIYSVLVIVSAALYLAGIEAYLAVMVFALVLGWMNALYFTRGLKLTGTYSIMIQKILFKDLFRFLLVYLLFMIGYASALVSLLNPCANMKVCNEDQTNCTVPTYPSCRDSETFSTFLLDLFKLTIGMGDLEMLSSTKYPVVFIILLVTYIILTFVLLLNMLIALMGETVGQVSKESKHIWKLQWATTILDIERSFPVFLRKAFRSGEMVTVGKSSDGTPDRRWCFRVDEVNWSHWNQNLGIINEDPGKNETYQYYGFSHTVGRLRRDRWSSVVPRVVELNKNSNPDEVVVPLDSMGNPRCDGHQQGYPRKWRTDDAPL

| SMILES | EC50 [1] [µM] | EC50 [2] [µM] |
| --- | --- | --- |
| CC(C)C[C@H](NC(=O)c1cc2ccccc2s1)C(=O)N[C@@H]1CCCN(S(=O)(=O)c2ccc(Cl)cc2Cl)CC1 [Example 6, N-{(1S)-1-[({(4R)-1-[(2,4-Dichlorophenyl)sulfonyl]hexahydro-1H-azepin-4-yl}amino)carbonyl]-3-methylbutyl}-1-benzothiophene-2-carboxamide] | – | 0.1 to 0.794 |
| CC(C)C[C@H](NC(=O)c1cc2ccccc2s1)C(=O)N[C@@H]1CCCN(S(=O)(=O)c2ccccc2C#N)CC1 [Example 5, N-{(1S)-1-[({(4R)-1-[(2-cyanophenyl)sulfonyl]hexahydro-1H-azepin-4-yl}amino)carbonyl]-3-methylbutyl}-1-benzothiophene-2-carboxamide] | 0.14 to 1 | – |

The remaining lines, values ahead:

| EC50 [1] [µM] | EC50 [2] [µM] | SMILES |
| --- | --- | --- |
| 1.01 to 10 | 1 to 7.94 | CC(C)C[C@H](NC(=O)c1cc2ccccc2n1C)C(=O)N(C)C1CCCN(S(=O)(=O)c2ccccc2C#N)CC1 (stereo partly drawn) [Example 11, N-((1S)-1-{[{1-[(2-Cyanophenyl)sulfonyl]hexahydro-1H-azepin-4-yl}(methyl)amino]carbonyl}-3-methylbutyl)-1-methyl-1H-indole-2-carboxamide] |
| – | 10 to 31.6 | CC(C)C[C@H](NC(=O)c1cc2ccccc2n1C)C(=O)NC1CCCN(S(=O)(=O)c2ccc(Cl)cc2)CC1 (mixture of isomers) [Example 3, 1-Methyl-1H-indole-2-carboxylic acid {(S)-1-[1-(4-chloro-benzenesulfonyl)-azepan-4-ylcarbamoyl]-3-methyl-butyl}-amide] |
| 10 to 30 | – | CC(C)C[C@H](NC(=O)c1cc2ccccc2s1)C(=O)N[C@@H]1CCCN(S(=O)(=O)c2ccc(C#N)cc2)CC1 [Example 8, N-{(1S)-1-[({(4R)-1-[(4-Cyanophenyl)sulfonyl]hexahydro-1H-azepin-4-yl}amino)carbonyl]-3-methylbutyl}-1-benzothiophene-2-carboxamide] |
